The numbers were not newly measured in patent publication US11400063B2, “Early administration of low-dose colchicine after myocardial infarction” (INSTITUT DE CARDIOLOGIE DE MONTREAL, priority 2019, dated 2022), which cites them from elsewhere.

For data set [1] the following is noted: CIRT; cited from earlier work.
A further data set deals with stable coronary disease. Conditions: CANTOS; cited from earlier work.

Take `CN(Cc1cnc2nc(N)nc(N)c2n1)c1ccc(C(=O)N[C@@H](CCC(=O)O)C(=O)O)cc1` [methotrexate]: the “cardiovascular outcomes or plasma markers of inflammation” value in data set [1] is given as “did not affect”. Consider “canakinumab: injectable monoclonal antibody inhibiting interleukin-1β”, for which, in the data set with stable coronary disease, the “incidence of fatal infections” value is reported as “slightly higher incidence” and the “lower risk of cardiovascular events than with placebo” value is recorded as 15%.
